Data: patent US10973863B2, “Method for regulating, preventing and/or treating pulmonary injury” (SINPHAR PHARMACEUTICAL CO., LTD., priority 2017, dated 2021)

What was measured:
[1] = system: MMP-9; assay: Gelatin zymography: LPS-activated active expression of MMP-9 in NR8383 cells; format: cell-based, rat; details: LPS 1 μg/mL, 24 hours
From the text: As indicated above, when an inflammatory response occurs in animal's pulmonary tissue, the active inflammatory cells will secret MMPs that will destroy the pulmonary tissue structure, cause more serious pulmonary injury, and lead to the decrement in or the loss of pulmonary functions. […]
Thereafter, the medium of each group was collected and respectively subjected to the following procedures. A 10% polyacrylamide gel containing 0.2% gelatin was used to carry out the sodium dodecyl sulfate polyacrylamide gel electrophoresis (SDS-PAGE). After the electrophoresis was completed, the gel was sequentially soaked in 2.5% Triton X-100 solution for 90 minutes to remove SDS, soaked in distillation-distillation water (ddH2O) for 30 minutes, and placed in a reaction solution (50 mM Tris-HCl buffer containing 10 mM CaCl2 and 0.02% NaN3) at a temperature of 37° C. for 18 hours. After the foregoing reaction was completed, the gel was stained by a Coomassie blue staining solution, and the image of stained gel was taken and subjected to an image analysis. The image intensity (the image intensity was calculated based on the size of area and the shade of color) of highlight band (i.e., the gelatin in this area was degraded by MMPs, wherein the area locating around 95 kD molecular weight) on the gel of each group can reflect the active expression of MMP-9 of rat alveolar macrophage NR8383 cells under different conditions (the relative active expression of MMP-9 was calculated by serving the results of the blank group as 0% and serving that of the control group as 100%).
Rat alveolar macrophage NR8383 cells were divided into twenty-eight groups and separately cultivated with the following media for 24 hours: • (1) Blank group: a macrophage growth medium; • (2) Control group: a macrophage growth medium containing 1 μg/mL LPS; • (3) Positive control group: a macrophage growth medium containing 1 μg/mL LPS and 5 μM Prednisolone (a type of corticosteroid; abbreviated as “Pred”; purchased from Sigma-Aldrich); • (4) Extract C (including five sub-groups): a macrophage growth medium containing 1 μg/mL LPS and the extract C provided by [preparation example A-3-2], wherein the extract C is present in the five sub-groups at a concentration of […] respectively; • (5) Extract D (including five sub-groups): a macrophage growth medium containing 1 μg/mL UPS and the extract D provided by [preparation example A-4-2], wherein the extract D is present in the five sub-groups at a concentration of 0.78, 1.56, 3.13, 6.25 and 12.5 respectively; • (6) Extract E (including five sub-groups): a macrophage growth medium containing 1 μg/mL LPS and the extract E provided from [preparation example A-4-3], wherein the extract E is present in the five sub-groups at a concentration of 0.78, 1.56, 3.13, […], and 12.5 respectively; • (7) DATA group (including five sub-groups): a macrophage growth medium containing 1 μg/mL LPS and the dehydrotrametenolic acid (DTTA) provided by [preparation example C-1], wherein the dehydrotrametenolic acid (DTTA) is present in the five sub-groups at a concentration of 0.39, 0.78, 1.56, 3.13 and 6.25 μg/mL respectively; and • (8) PAA group (including live sub-groups): a macrophage growth medium containing 1 μg/mL LPS and the poricoic acid A (PAA) provided from [preparation example C-1], wherein the poricoic acid A (PAA) is present in the five sub-groups at a concentration of 6.25, 12.5, 25, 50 and 100 respectively.
Thereafter, the medium of each group was collected and analyzed by the analyzing procedures same as that of (1-1).

[2] = system: TGFβ-induced intracellular accumulation of collagen in myofibroblast WI38 cells; assay: Picrosirius red staining: TGFβ-induced collagen accumulation in WI38 cells; format: cell-based; details: 1 ng/mL TGF-β
From the text: As indicated above, the hyperactive expression of MMPs will cause pulmonary injury. Under the most circumstances, the response mechanisms in animals will activate, for example, macrophages will secret TGF-β and TGF-β which can promote the lung fibroblasts to secret collagen, so that the damaged tissues can be recovered. However, the hypersecretion of collagen will also lead to lung fibrosis. To investigate whether FU-LING extracts and its active ingredients are effective in regulating, protecting and/or treating the pulmonary injury-related diseases such as lung fibrosis or not, the Picrosirius red (PSR) staining was conducted as a semi-quantification of collagen, so that the inhibitory rate of FU-LING extract and its active ingredients on the TGFβ-induced intracellular accumulation of collagen in myofibroblast WI38 cells can be determined.
Myofibroblast WI38 cells (purchased from ATCC, product no. CCL75™) were divided into ten groups and separately cultivated with the following media for 48 hours:
(1) Blank group: a myolibroblast growth medium;
(2) Control group: a myofibroblast growth medium containing 1 ng/mL TGF-β (purchased from R&D system);
(3) Positive control group: a myofibroblast growth medium containing 1 ng/mL TGF-β and 200 μg/mL Pirfenidone (abbreviated as “Pir”; purchased from Sigma-Aldrich);
(4) Extract A (including four sub-groups): a myofibroblast growth medium containing 1 ng/mL TGF-β and the extract A provided by [Preparation example A-2-2], wherein the extract A is present in the four sub-groups at a concentration of 12.5, 25, 50 and 100 μg/mL respectively; and
(5) Extract B (including three sub-groups): a myofibroblast growth medium containing 1 ng/ml, TGF-β and the extract B provided by [Preparation example A-2-3], wherein the extract B is present in the […] at a concentration of 12.5, 25 and 50 μg/mL respectively.
Thereafter, the media were replaced by methanol to fix the cells at a temperature of −20° C. for 1 to 2 hours. After that, the cells were washed with PBS, and then stained with 0.1% PSR staining agent (purchased from Sigma-Aldrich) at room temperature for 4 hours. The stained cells were washed with 0.1% acetic acid, and then lysed with 0.1N sodium hydroxide to provide a lysate. The OD540 (i.e., the absorbance at a wavelength of 540 nm) of the lysate was measured. OD540 value of each group represents the content of collagen in each group, reflecting the content of collagen in fibroblast WI38 cells under different circumstances (the relative content of collagen in each group was calculated by serving the result of blank group as 0% and serving the result of control group as 100%).
Myofibroblast WI38 cells were divided into twenty-eight groups and separately cultivated with the following media for 24 hours:
(1) Blank group: a myofibroblast growth medium;
(3) Positive control group; a myofibroblast growth medium containing 1 ng/mL TGF-β and 200 μg/mL Pirfenidone (abbreviated as “Pir”; purchased from Sigma-Aldrich);
(4) Extract C group (including five sub-groups): a myofibroblast growth medium containing 1 ng/mL TGF-β and the extract C provided by [preparation example A-3-2], wherein the extract C is present in the five sub-groups at a concentration of […], 6.25 and 12.5 μg/mL respectively;
(5) Extract D group (including five sub-groups): a myofibroblast growth medium containing 1 ng/mL TGF-β and the extract D provided by [preparation example A-4-2], wherein the extract D is present in the five sub-groups at a concentration of 0.78, 1.56, 3.13, 6.25 and 12.5 μg/mL respectively;
(6) Extract E group (including five sub-groups): a myofibroblast growth medium containing 1 ng/mL TGF-β and the extract E provided by [preparation example A-4-3], wherein the extract E is present in the five sub-groups at a concentration of 0.78, 1.56, 3.13, 6.25 and 12.5 μg/mL respectively; […]

C=C(CC[C@@H](C(=O)O)[C@H]1[C@H](O)C[C@@]2(C)C3=CC[C@H]4C(C)(C)[C@@H](O)CC[C@]4(C)C3=CC[C@]12C)C(C)C [DTA, dehydrotumulosic acid]
Relative active expression of MMP-9 (%) ([1]; Table 4, 3.13 μg/mL): 79.7% | Relative active expression of MMP-9 (%) ([1]; Table 4, 6.25 μg/mL): 83.9% | Relative active expression of MMP-9 (%) ([1]; Table 4, 12.5 μg/mL): 80.7%

CC(C)=CCC[C@@H](C(=O)O)[C@H]1CC[C@@]2(C)C3=CC[C@H]4C(C)(C)[C@@H](O)CC[C@]4(C)C3=CC[C@]12C [DTTA, dehydrotrametenolic acid]
Relative active expression of MMP-9 (%) ([1]; Table 5, 0.39 μg/mL): 91% | Relative active expression of MMP-9 (%) ([1]; Table 5, 0.78 μg/mL): 99% | Relative active expression of MMP-9 (%) ([1]; Table 5, 1.56 μg/mL): 79% | Relative active expression of MMP-9 (%) ([1]; Table 5, 3.13 μg/mL): 72% | Relative active expression of MMP-9 (%) ([1]; Table 5, 6.25 μg/mL): 74% | Relative content of collagen (%) ([2]; Table 7, 0.39 μg/mL, 24 hours): 25% | Relative content of collagen (%) ([2]; Table 7, 0.78 μg/mL, 24 hours): 100% | Relative content of collagen (%) ([2]; Table 7, 1.56 μg/mL, 24 hours): 25% | Relative content of collagen (%) ([2]; Table 7, 3.13 μg/mL, 24 hours): 53% | Relative content of collagen (%) ([2]; Table 7, 6.25 μg/mL, 24 hours): 70%

C[C@]12C=CC(=O)C=C1CC[C@@H]1[C@@H]2[C@@H](O)C[C@@]2(C)[C@H]1CC[C@]2(O)C(=O)CO [Pred, Prednisolone, reference compound]
Effect on inhibiting the 1 μg/mL LPS-induced increment in active expression of MMP-9 (in words) ([1]; all tested concentrations): cannot inhibit | Relative active expression of MMP-9 (%) ([1]; Table 5, Pred 5 μM, blank 0%, control 100%): 97%

C[C@@H]1C[C@H]2[C@@H]3CCC4=CC(=O)C=C[C@]4(C)[C@@]3(F)[C@@H](O)C[C@]2(C)[C@@]1(O)C(=O)CO [Dex, dexamethasone, reference compound]
Relative active expression of MMP-9 (%) ([1]; Table 4, Dex 1 μM, blank 0%, control 100%): 100%

Cc1ccc(=O)n(-c2ccccc2)c1 [Pir, Pirfenidone, reference compound]
Relative content of collagen (%) ([2]; Table 6, Pir 200 μg/mL, 48 hours, blank 0%, control 100%): 69% | Relative content of collagen (%) ([2]; Table 7, Pir 200 μg/mL, 24 hours, blank 0%, control 100%): 0%
